Results on ten compounds are retold here after patent publication US6150376A, “Bi- and tri-cyclic aza compounds and their uses” (Georgetown University, priority 1998, dated 2000).

In experiment [1] the target is T1, dopamine transporter (Rattus norvegicus, UniProt P23977).
T1 construct: from tissue
The experiment in a line: [3H]Mazindol binding at the dopamine transporter. The note with it: for Ki: Ki ± SE, Krebs-Ringer-HEPES buffer. Here is the method:
(§1) Various isomeric forms of front-bridged Compounds 4, 5, 29, 30, 31, 40 and 50a and back-bridged Compounds 41, 42a, 42b, 49a and 50a were assayed for binding at the dopamine transporter and for inhibition of monamine re-uptake at the dopamine, serotonin and norepinephrine transporters. Mazindol binding were measured as previously described in Johnson et. al., 1992, Eur. J. Pharmacol., Mol. Pharmacol. Sect., 227:411-415. Reuptake inhibition was measured essentially as described in Yi et. al., 1991, Neuropharmacol. 29:475-486, except that an identical Krebs-Ringer-HEPES buffer was used for binding and all uptake assays (Slusher et al., 1997, Drug Alcohol Depend. 48:43-50).

Experiment [2] addresses T1, dopamine transporter. Description: [3H]DA uptake (re-uptake inhibition at the dopamine transporter). It counts as biochemical. The conditions noted are these: for Ki: Ki ± SE, Krebs-Ringer-HEPES buffer; for higher activity / selectivity at the DAT over the 5-HTT: reuptake inhibition, DAT over 5-HTT. How it is done: as §1
In experiment [3] the target is T2, serotonin transporter (Rattus norvegicus, UniProt P31652).
T2 construct: from tissue
The experiment in a line: [3H]5-HT uptake (re-uptake inhibition at the serotonin transporter). It counts as biochemical. The note with it: for Ki: Ki ± SE, Krebs-Ringer-HEPES buffer; for 5-HT/DA (ratio of uptake Ki): ratio of 5-HT uptake Ki to DA uptake Ki. Here is the method: as §1

The target in experiment [4] is T3, norepinephrine transporter (Rattus norvegicus, UniProt Q63380).
T3 construct: from tissue
Description: [3H]NE uptake (re-uptake inhibition at the norepinephrine transporter). The note with it: Ki ± SE; Krebs-Ringer-HEPES buffer. The class given is biochemical. How it is done: as §1

The conditions of experiment [5]: Preskorn, 1994; cited from earlier work.
Experiment [6] concerns serotonin and norepinephrine re-uptake. The note with it: in words; cited from earlier work.

T1 sequence (P23977 whole entry): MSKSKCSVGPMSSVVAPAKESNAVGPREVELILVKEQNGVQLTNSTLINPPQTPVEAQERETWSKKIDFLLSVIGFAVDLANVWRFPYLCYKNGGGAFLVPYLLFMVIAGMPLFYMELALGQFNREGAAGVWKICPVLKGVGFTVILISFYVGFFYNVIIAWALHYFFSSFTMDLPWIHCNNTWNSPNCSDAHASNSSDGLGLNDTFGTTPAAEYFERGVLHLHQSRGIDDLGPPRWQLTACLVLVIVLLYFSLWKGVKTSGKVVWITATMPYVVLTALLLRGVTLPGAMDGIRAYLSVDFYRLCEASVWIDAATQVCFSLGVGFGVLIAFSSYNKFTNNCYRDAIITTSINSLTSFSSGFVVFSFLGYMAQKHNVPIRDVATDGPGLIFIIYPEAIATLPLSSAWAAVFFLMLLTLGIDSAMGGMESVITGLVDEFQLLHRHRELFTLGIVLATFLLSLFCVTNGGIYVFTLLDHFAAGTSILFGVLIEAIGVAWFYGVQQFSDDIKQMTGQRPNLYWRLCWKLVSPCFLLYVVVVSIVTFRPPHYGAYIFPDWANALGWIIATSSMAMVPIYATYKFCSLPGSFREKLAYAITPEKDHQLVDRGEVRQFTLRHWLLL
T3 sequence (Q63380 1-617): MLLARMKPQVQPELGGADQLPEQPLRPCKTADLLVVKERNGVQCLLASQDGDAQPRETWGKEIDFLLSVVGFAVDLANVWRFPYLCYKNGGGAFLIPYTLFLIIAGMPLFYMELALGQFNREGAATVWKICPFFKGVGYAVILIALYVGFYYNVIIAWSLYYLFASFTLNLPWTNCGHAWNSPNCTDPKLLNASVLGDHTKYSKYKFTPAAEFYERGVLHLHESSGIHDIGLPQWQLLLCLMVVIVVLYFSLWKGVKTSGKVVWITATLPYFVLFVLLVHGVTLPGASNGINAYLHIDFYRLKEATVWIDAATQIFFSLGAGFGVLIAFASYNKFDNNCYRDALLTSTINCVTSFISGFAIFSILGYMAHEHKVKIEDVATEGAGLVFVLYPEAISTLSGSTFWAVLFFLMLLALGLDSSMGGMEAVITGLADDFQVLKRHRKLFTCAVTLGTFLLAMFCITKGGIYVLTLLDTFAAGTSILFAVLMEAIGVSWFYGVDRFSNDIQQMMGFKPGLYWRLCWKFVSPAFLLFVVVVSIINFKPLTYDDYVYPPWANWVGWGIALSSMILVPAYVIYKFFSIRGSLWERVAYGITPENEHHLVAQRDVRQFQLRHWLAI
T2 sequence (P31652 whole entry): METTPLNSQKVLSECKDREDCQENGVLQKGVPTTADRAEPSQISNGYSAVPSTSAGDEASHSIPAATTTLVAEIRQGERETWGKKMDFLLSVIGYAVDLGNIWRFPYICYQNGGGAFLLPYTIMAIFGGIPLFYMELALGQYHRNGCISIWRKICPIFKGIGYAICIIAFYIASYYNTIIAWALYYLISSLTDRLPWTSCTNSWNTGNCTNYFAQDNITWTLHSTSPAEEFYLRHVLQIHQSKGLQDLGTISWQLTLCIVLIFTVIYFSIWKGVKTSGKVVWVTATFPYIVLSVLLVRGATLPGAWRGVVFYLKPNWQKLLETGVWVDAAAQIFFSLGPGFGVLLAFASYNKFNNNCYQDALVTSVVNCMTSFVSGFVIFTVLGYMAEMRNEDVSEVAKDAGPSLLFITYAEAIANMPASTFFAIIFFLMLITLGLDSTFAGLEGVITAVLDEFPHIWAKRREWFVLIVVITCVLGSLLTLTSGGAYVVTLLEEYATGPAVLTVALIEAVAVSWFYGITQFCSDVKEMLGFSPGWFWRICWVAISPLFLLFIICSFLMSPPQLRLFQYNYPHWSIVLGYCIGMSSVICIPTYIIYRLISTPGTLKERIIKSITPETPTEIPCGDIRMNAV

The Ki is the equilibrium dissociation constant of an inhibitor or competing ligand from its target. A higher Ki goes with weaker binding. As for “(1R, 2S, 4R, 7S)-(-)-10-methylene-2-(p-tolyl)-8-azatricyclo [5.2.0.0^4.8 ] decane [Compound (-)-40]”, the Ki in experiment [1] came out at 54.3 ± 10.2 nM; in experiment [2] it was 60.3 ± 0.4 nM; in experiment [3], 1.76 nM; in experiment [4], 5.24 ± 0.07 nM. Besides, the “5-HT/DA (ratio of uptake Ki)” value in experiment [3] came to 0.029.

`Cc1ccc(C2CC3CCC4C2c2ccccc2CN34)cc1` (racemic) [Compound 45]: the Ki in experiment [1] worked out at 6.86 ± 0.43 nM; in experiment [2] it was 23.9 ± 1.33 nM; in experiment [3], 1.77 nM; in experiment [4], 1.06 ± 0.03 nM. For the same compound, the “5-HT/DA (ratio of uptake Ki)” value in experiment [3] was 0.074.

Turning to `C=C1CN2C3CCC2C1C(c1ccc(C)cc1)C3` (racemic) [Compound (±)-40], the Ki worked out at 61.7 ± 8.5 nM in experiment [1], 60.3 nM in experiment [2], 2.32 ± 0.23 nM in experiment [3] and 2.69 ± 0.12 nM in experiment [4]. For the same compound, in experiment [1] (in words), the “binding potency relative to (-)-40” value is “only slightly decreased from that of the (-)-40”. Moreover, the “5-HT/DA (ratio of uptake Ki)” value in experiment [3] is 0.038.

For “(1SR, 2SR, 3RS, 5RS, 7SR)-2-butyl-methylphenyl)-10-azatricyclo [5.3.0.0^5,10 ]decane [Compound 50a]”, the Ki in experiment [1] was 149 ± 5.75 nM; in experiment [2] it was 149 ± 2.13 nM; in experiment [3], 810 ± 79.5 nM; in experiment [4], 51.7 ± 12 nM. In addition, the “5-HT/DA (ratio of uptake Ki)” value in experiment [3] was determined as 5.4.

For the compound `O=C1CN2CCC(c3ccc(Cl)cc3)C1C2` (stereo not drawn) [Compound (+)-5], the Ki in experiment [1] turned out to be 6770 ± 500 nM; in experiment [2], 10500 ± 450 nM; in experiment [3], 25100 ± 3600 nM; in experiment [4] it was 4530 ± 410 nM. Moreover, the “higher activity / selectivity at the DAT over the 5-HTT” value in experiment [2] is given as 2.4 fold. The “5-HT/DA (ratio of uptake Ki)” value in experiment [3] amounted to 2.4.

For `O=C1CN2CCC(c3ccc(Cl)cc3)C1C2` (stereo not drawn) [Compound (+)-4], the Ki in experiment [1] came out at 18500 ± 2700 nM; in experiment [2], 27600 ± 1000 nM; in experiment [3], 4630 ± 760 nM; in experiment [4] it was 38300 ± 4610 nM. Moreover, in experiment [3], the “5-HT/DA (ratio of uptake Ki)” value is 0.16.

On to `COc1ccc(C(CN(C)C)C2(O)CCCCC2)cc1` (stereo not drawn) [venlafaxine], for which the “time to full antidepressant effect” value in experiment [5] was 4 to 7 days. In experiment [6], the “selectivity for serotonin (dual serotonin and norepinephrine re-uptake inhibitor)” value is reported as “five-fold selectivity for serotonin”.

As for `CCCC[C@@H]1CC[C@@H]2C3CN[C@H]2C[C@@]31c1ccc(C)cc1` (racemic) [Compound 42a, (1SR, 3SR, 4RS, 5SR, 7RS)-4-butyl-3-(4-methylphenyl)-10-azatricyclo[5.3.0.0^3,8]decane], the Ki in experiment [1] was found to be 4 ± 0.07 nM; in experiment [2], 2.23 ± 0.12 nM; in experiment [3], 14 ± 0.58 nM; in experiment [4] it was 2.99 ± 0.17 nM. Further, in experiment [3], the “5-HT/DA (ratio of uptake Ki)” value came out at 6.3.

For `O=C1CN2CCC(c3ccc(Cl)cc3)C1C2` (stereo not drawn) [Compound (-)-5], the Ki is 9740 ± 160 nM in experiment [1], 9050 ± 460 nM in experiment [2], 11900 ± 610 nM in experiment [3] and 4650 ± 440 nM in experiment [4]. Besides, the “higher activity / selectivity at the DAT over the 5-HTT” value in experiment [2] came to 1.3 fold. The “5-HT/DA (ratio of uptake Ki)” value in experiment [3] is recorded as 1.3.

As to `O=C1CN2CCC(c3ccc(Cl)cc3)C1C2` (stereo not drawn) [Compound (-)-4], the Ki in experiment [1] turned out to be 10500 ± 930 nM; in experiment [2], 16500 ± 970 nM; in experiment [3], 1890 ± 440 nM; in experiment [4], 70900 ± 18000 nM. The “5-HT/DA (ratio of uptake Ki)” value in experiment [3] was found to be 0.11. In experiment [3] (reuptake inhibition, 5-HTT over NET), the “more active at the 5-HTT (5-HTT/NET selectivity)” value is given as 38 fold.
